Assay results published in patent US9878986B2, “Compounds for selective histone deacetylase inhibitors, and pharmaceutical composition comprising the same” (CHONG KUN DANG PHARMACEUTICAL CORP., priority 2013, dated 2018).

Tests used:
[1] = target: T1, HDAC 2 (Homo sapiens, UniProt Q92769); assay: HDAC panel by Reaction Biology Corp., HDAC 2; format: biochemical; details: read-out: HDAC inhibitory activities, HDAC 2
T1 construct: Reaction Biology Corp
Excerpt: (§1) The inhibitory activities of Compounds 255 and 374 on all HDACs were confirmed (by Reaction Biology Corp.).

[2] = target: T2, HDAC 10 (Homo sapiens, UniProt Q969S8); assay: HDAC panel by Reaction Biology Corp., HDAC 10; format: biochemical; details: read-out: HDAC inhibitory activities, HDAC 10
T2 construct: Reaction Biology Corp
T2 sequence (Q969S8 1-669): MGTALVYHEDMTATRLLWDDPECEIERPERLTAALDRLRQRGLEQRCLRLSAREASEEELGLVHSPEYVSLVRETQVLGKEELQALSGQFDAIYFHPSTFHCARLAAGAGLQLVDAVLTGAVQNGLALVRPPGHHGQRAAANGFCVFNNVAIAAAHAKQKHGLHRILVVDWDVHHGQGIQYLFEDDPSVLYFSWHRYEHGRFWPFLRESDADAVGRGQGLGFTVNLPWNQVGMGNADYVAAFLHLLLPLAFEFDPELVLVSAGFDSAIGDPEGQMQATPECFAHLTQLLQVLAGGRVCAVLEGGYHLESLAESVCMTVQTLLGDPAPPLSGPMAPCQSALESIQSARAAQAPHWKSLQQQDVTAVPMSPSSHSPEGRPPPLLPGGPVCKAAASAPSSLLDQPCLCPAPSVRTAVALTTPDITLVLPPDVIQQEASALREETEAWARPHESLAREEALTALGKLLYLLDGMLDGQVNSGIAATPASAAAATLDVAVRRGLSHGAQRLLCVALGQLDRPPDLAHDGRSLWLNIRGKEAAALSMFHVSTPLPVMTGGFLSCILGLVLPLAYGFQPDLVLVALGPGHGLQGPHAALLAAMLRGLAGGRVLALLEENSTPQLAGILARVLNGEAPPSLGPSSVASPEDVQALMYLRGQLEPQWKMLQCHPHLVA
Excerpt: as §1

[3] = target: T3, HDAC 11 (Homo sapiens, UniProt Q96DB2); assay: HDAC panel by Reaction Biology Corp., HDAC 11; format: biochemical; details: read-out: HDAC inhibitory activities, HDAC 11
T3 construct: Reaction Biology Corp
T3 sequence (Q96DB2 1-347): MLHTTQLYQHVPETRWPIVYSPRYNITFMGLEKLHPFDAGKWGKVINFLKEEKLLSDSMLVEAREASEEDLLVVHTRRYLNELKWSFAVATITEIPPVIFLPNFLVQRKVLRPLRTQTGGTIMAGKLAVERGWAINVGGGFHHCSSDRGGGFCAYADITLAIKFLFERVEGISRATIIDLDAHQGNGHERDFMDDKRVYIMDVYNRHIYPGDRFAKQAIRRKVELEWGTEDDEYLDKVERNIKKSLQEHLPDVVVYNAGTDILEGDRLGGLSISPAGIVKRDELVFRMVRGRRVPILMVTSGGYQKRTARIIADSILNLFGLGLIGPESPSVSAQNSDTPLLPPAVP
Excerpt: as §1

[4] = tested on: collagen-induced arthritis models; assay: Collagen-induced arthritis models; format: in vivo, DBA/1J mice; details: for arthritis symptoms improved by: versus vehicle group
Procedure: An emulsion was prepared by mixing bovine collagen type II (Chondrex) and complete Freund's adjuvant (Chondrex) at a ratio of 1:1 until the […] using a 1 ml pipette. Each 100 μL of emulsion was intradermally injected into the tail of DBA/1J mice for the first immunization. After 21 days, an emulsion was prepared by mixing bovine collagen type II and incomplete Freund's adjuvant (Chondrex) at a ratio of 1:1 by the same method as above. Each of 100 μL of emulsion was intradermally injected into the upper part of the tail of DBA/1J mice for the second boosting immunization. After the second boosting immunization, the mice were grouped according to body weight, the test drug was administered to each group, and the effects of the test drugs were measured by measuring the clinical score and the body weight. The clinical scores were assigned from 0 to 4, and the total clinical score was determined by evaluating the feet of each mouse and summing up the scores (normal: 0, most severe edema: 16). That is, the efficacy in the arthritis models was evaluated with the severity of edema of the joint, and a higher score was assigned to more severe edema.

[5] = target: T4, HDAC 6 (Homo sapiens, UniProt Q9UBN7); assay: HDAC panel by Reaction Biology Corp., HDAC 6; format: biochemical; design: Reaction Biology Corp; details: for IC50: Table 15, Reaction Biology Corp., read-out: HDAC6 inhibitory activity; for Selectivity (HDAC6/1): ratio of the HDAC 1 and HDAC 6 values of Table 15; for selectivity for HDAC6 over HDAC1: text on Table 15
T4 sequence (Q9UBN7 1-1215): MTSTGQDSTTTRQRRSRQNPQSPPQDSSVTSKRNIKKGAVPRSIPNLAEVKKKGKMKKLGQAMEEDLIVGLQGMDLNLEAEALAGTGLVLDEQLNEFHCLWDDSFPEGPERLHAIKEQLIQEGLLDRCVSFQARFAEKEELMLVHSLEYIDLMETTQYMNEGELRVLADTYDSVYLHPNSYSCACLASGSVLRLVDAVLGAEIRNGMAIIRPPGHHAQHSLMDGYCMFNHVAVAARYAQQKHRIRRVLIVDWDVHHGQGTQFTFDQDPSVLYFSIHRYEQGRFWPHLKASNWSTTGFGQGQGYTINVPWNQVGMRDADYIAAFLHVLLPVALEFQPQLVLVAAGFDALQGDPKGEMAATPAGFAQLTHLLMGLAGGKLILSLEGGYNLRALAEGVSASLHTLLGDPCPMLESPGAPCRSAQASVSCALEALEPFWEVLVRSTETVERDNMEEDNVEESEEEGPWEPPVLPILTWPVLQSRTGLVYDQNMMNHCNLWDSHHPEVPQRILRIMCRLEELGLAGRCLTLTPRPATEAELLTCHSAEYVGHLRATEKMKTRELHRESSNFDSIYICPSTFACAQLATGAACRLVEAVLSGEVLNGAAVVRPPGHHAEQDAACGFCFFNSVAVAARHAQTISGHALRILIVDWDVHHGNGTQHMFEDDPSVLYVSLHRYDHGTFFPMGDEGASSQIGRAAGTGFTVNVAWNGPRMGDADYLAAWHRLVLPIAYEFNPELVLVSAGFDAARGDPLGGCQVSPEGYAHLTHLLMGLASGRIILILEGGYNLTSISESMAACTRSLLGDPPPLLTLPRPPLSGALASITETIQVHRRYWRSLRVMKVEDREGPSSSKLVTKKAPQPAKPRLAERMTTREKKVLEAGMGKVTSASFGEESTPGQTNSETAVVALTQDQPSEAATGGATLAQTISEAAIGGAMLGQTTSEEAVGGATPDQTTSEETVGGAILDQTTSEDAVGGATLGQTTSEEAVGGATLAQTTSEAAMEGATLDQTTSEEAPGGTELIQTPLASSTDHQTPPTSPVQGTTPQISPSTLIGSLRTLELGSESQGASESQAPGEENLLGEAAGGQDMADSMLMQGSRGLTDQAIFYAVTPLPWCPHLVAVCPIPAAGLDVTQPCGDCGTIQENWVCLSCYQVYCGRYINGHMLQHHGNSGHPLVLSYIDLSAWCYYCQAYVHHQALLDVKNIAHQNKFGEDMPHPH
Excerpt: as §1

T1 sequence (Q92769 whole entry): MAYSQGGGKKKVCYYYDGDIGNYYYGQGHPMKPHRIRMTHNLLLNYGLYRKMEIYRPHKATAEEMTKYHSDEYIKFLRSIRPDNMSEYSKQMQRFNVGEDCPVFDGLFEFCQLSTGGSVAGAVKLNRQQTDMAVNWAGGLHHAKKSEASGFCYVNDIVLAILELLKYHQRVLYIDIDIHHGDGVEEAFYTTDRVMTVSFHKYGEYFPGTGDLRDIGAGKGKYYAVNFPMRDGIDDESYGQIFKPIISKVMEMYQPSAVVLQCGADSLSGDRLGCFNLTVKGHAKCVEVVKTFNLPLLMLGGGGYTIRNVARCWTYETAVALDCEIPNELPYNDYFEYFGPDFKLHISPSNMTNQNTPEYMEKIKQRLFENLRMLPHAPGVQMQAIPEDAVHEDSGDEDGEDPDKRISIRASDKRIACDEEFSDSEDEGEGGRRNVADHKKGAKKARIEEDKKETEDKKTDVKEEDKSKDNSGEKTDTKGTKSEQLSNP

IC50 [1]	IC50 [2]	IC50 [3]	IC50 [5]	Selectivity (HDAC6/1) [5]	selectivity for HDAC6 over HDAC1 [5]	Structure (SMILES)	arthritis symptoms improved by ([4]; different concentrations (doses not given))	clinical score ([4]; different concentrations, first value listed (dose not given), vehicle group 6.7)	clinical score ([4]; different concentrations, second value listed (dose not given), vehicle group 6.7)	clinical score ([4]; 10 mg/kg twice a day, score 0 to 16, vehicle group 11.6)	clinical score ([4]; 30 mg/kg twice a day, score 0 to 16, vehicle group 11.6)	arthritis symptoms improved by ([4]; 10 and 30 mg/kg twice a day)
4.88 µM	16.2 µM	8.42 µM	0.005 µM	424	424 times	O=C(NO)c1ccc(CN(C(=O)N2CCOCC2)c2cccc(C(F)(F)F)c2)cc1 [Compound 374, N-(4-(hydroxycarbamoyl)benzyl)-N-(3-(trifluoromethyl)phenyl)morpholine-4-carboxamide]	more than 60%	2.8	2.5			
0.69 µM	1.47 µM	0.78 µM	0.001 µM	160	160 times	O=C(NO)c1ccc(CN(C(=O)N2CCOCC2)c2cccc(Br)c2)cc1 [Compound 255, N-(3-bromophenyl)-N-(4-(hydroxycarbamoyl)benzyl)morpholine-4-carboxamide]				5.2	6.5	more than 50%
